Experimental data as given in patent US9259406B2, “Antitumor combinations containing antibodies recognizing specifically CD38 and melphalan” (SANOFI, priority 2008, dated 2016).
Values joined by “and” are separate entries in the source; they are usually repeats but may differ in a detail not shown here. Equal values may be shown once. “Also recorded” adds a separate entry of the source. Read-outs that look alike come from different tables or passages of the source.

Assays:
[1] = system: human multiple myeloma LP1
[2] = system: human multiple myeloma RPMI-8226
[3] = target: T1, murine CD38 (Mus musculus, UniProt P56528); assay: cross-reactivity of the antibody with murine CD38; format: binding
T1 sequence (P56528 1-304): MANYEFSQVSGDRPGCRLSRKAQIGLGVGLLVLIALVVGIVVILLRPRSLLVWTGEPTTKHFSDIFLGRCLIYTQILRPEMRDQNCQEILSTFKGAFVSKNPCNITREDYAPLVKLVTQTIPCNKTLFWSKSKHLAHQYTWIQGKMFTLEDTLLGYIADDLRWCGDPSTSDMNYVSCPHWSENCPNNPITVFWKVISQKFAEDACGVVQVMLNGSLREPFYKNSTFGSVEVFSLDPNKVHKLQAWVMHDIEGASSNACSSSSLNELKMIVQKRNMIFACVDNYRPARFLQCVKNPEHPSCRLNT

[4] = melphalan IV 3.8 mg/kg/inj (total 15.2), days 12, 15, 18, 21
[5] = melphalan IV 6.2 mg/kg/inj (total 24.8), days 12, 15, 18, 21
[6] = melphalan IV 10.0 mg/kg/inj (total 40.0), days 12, 15, 18, 21
[7] = melphalan IV 16.1 mg/kg/inj (total 48.3), treatments stopped on day 18
[8] = melphalan alone IV, total injected dose 40 mg/kg
[9] = melphalan IV 3.8 mg/kg/inj (total 15.2), days 16, 19, 22, 25
[10] = melphalan IV 6.2 mg/kg/inj (total 24.8), days 16, 19, 22, 25
[11] = melphalan IV 10.0 mg/kg/inj (total 40.0), days 16, 19, 22, 25
[12] = hu38SB19 IV 40.0 mg/kg/inj (total 160.0), days 12, 15, 18, 21

Compound: N[C@@H](Cc1ccc(N(CCCl)CCCl)cc1)C(=O)O [melphalan]
- Comments [1, 4]: Moderately active
- T-C in days (1000 mg) [1, 4]: 4.1 days
- log10 cell kill gross [1, 4]: 0.8
- % BWC at nadir (day) ([1]; melphalan IV 3.8 mg/kg/inj (total 15.2), days 12, 15, 18, 21, nadir day 22): +7.0%
- Comments [1, 5]: Highly active
- T-C in days (1000 mg) [1, 5]: 17.4 days
- log10 cell kill gross [1, 5]: 3.5
- % BWC at nadir (day) ([1]; melphalan IV 6.2 mg/kg/inj (total 24.8), days 12, 15, 18, 21, nadir day 24): −3.0%
- T-C in days (1000 mg) [1, 6]: 46.5 days
- log10 cell kill gross [1, 6]: 9.3
- % BWC at nadir (day) ([1]; melphalan IV 10.0 mg/kg/inj (total 40.0), days 12, 15, 18, 21, nadir day 24): −14.6%
- Comments [1, 7]: Toxic
- drug-related deaths [1, 7]: 4/5
- % BWC at nadir (day) ([1]; melphalan IV 16.1 mg/kg/inj (total 48.3), treatments stopped on day 18, nadir day 22): −33.6%
- body weight loss at nadir ([1]; melphalan alone 16.1 mg/kg/injection, nadir on day 22): 33.6%
- HNTD [1, 8]: 10 mg/kg/inj
- Comments [2, 9]: Moderately active
- Drug death [2, 9]: 0/5
- T-C in days (1000 mg) [2, 9]: 8.5 days
- log10 cell kill [2, 9]: 0.8
- % BWC at nadir (day) ([2]; melphalan IV 3.8 mg/kg/inj (total 15.2), days 16, 19, 22, 25, nadir day 17): −1.2%
- Comments [2, 10]: Active
- Drug death [2, 10]: 0/5
- T-C in days (1000 mg) [2, 10]: 9.5 days
- log10 cell kill [2, 10]: 0.9
- % BWC at nadir (day) ([2]; melphalan IV 6.2 mg/kg/inj (total 24.8), days 16, 19, 22, 25, nadir day 32): −3.5%
- Drug death [2, 11]: 0/5
- T-C in days (1000 mg) [2, 11]: 20.0 days
- log10 cell kill [2, 11]: 1.9
- Comments ([2]; melphalan IV 10.0 mg/kg/inj (total 40.0), days 16, 19, 22, 25, 10 mg/kg): HNTD, active
- % BWC at nadir (day) ([2]; melphalan IV 10.0 mg/kg/inj (total 40.0), days 16, 19, 22, 25, nadir day 26): −12.2%
- Comments ([2]; melphalan IV 16.1 mg/kg/inj (total 32.2), days 16, 19): Toxic
- Drug death ([2]; melphalan IV 16.1 mg/kg/inj (total 32.2), days 16, 19, 16.1 mg/kg): 3 and 3/5
- % BWC at nadir (day) ([2]; melphalan IV 16.1 mg/kg/inj (total 32.2), days 16, 19, nadir day 26): −33.4%
- highest nontoxic dose (HNTD) [2, 8]: 10 mg/kg/inj

Compound: hu38SB19: humanized version of anti-CD38 monoclonal antibody 38SB19; heavy chain CDRs SEQ ID NOS: 13, 81, 15, light chain CDRs SEQ ID NOS: 16, 17, 18
- T-C in days (1000 mg) [1, 12]: 1.1 days
- log10 cell kill gross [1, 12]: 0.2
- Comments ([1]; hu38SB19 IV 40.0 mg/kg/inj (total 160.0), days 12, 15, 18, 21, 40 mg/kg): not active; also recorded: HDT-inactive
- tolerability ([1]; mouse, in vivo, 40 mg/kg): well tolerated
- % BWC at nadir (day) ([1]; mouse, in vivo, iv, 40 mg/kg): +15.9%
- cross-reactivity with murine CD38 [3]: lack of cross-reactivity
- tolerability ([2]; mouse, in vivo, 40 mg/kg): well tolerated
- % BWC at nadir (day) ([2]; mouse, in vivo, iv, 40 mg/kg): +5.3%
- Comments ([2]; mouse, in vivo, iv, 40 mg/kg): not active; also recorded: HDT-inactive
- Drug death ([2]; mouse, in vivo, iv, 40 mg/kg): 0/5
- T-C in days (1000 mg) ([2]; mouse, in vivo, iv, 40 mg/kg): 5.2 days
- log10 cell kill ([2]; mouse, in vivo, iv, 40 mg/kg): 0.5
